In patent publication US7094807B2, “Substituted aryl thioureas and related compounds; inhibitors of viral replication” (Achillion Pharmaceuticals, Inc., priority 2002, dated 2006):

Tested on: HCV replicon
Test: HCV replicon assay (NPT ELISA in HCV replicon-containing cells)
Assay type: cell-based
Conditions: Hepatitis C virus, 72 h; HCV replicon-containing Huh-7 cells; three days incubation; read-out: EC50 for inhibition of replication of the HCV replicon
Method: The compounds claimed herein were tested for the ability to inhibit viral replication of the Hepatitis C replicon in cultured cells in which the HCV replicon construct has been incorporated. The HCV replicon system was described by Bartenschlager, et. al (Science, 285, pp. 110-113 (1999)). The replicon system is predictive of in vivo anti-HCV activity; compounds that are active in humans uniformly evidence activity in the replicon assay.
In this assay HCV replicon containing cells are treated with different concentrations of the test compound to ascertain the ability of the test compound to suppress replication of the HCV replicon. As a positive control, HCV replicon-containing cells are treated with different concentrations of interferon alpha, a known inhibitor of HCV replication. The replicon assay system includes Neomycin Phosphotransferase (NPT) as a component of the replicon itself in order to detect the transcription of replicon gene products in the host cell. Cells in which the HCV replicon is actively replicating have high levels of NPT; the level of NPT is proportional to HCV replication. […] The NPT level of each sample is measured using a captured ELISA.
A protocol for testing compounds for the ability to inhibit viral replication of the Hepatitis C replicon cultured cells in which the replicon construct has been incorporated, follows.
The HCV replicon contains, 5-′3′, the HCV-IRES, the neomycin phosphotransferase (neo) gene, the IRES of encephalomyocarditis virus, which directs translation of HCV sequences NS3 to NS5B, and the 3′-NTR. The sequence of the HCV replicon has been deposited in GenBank (Accession no. AJ242652).
The replicon is transfected into Huh-7 cells using standard methods such as electroporation.
The equipment and materials include, but are not limited to, Huh-7 HCV replicon-containing cells, maintenance media (DMEM (Dulbecco's modified Eagle media) supplemented with 10% FBS, L-glutamine, non-essential amino acids, penicillin (100 units/ml), streptomycin (100 micrograms/ml), and 500 micrograms/ml of Geneticin G418), screening media (DMEM supplemented with 10% FBS, L-glutamine, and non-essential amino acid, penicillin (100 units/ml) and streptomycin (100 micrograms/ml)), 96 well tissue culture plates (flat bottom), 96 well plates (U bottom for drug dilution), Interferon alpha for positive control, fixation reagent (such as methanol: acetone), primary antibody (rabbit anti-NPTII), secondary antibody: Eu-N1 l, and enhancement solution.
HCV replicon-containing cells are rinsed with once PBS once; 2 mls of trypsin is added. Cells are incubated at 37° C. in a 5% CO2 incubator for 3-5 minutes. 10 mls of complete medium is added to stop the reaction. Cells are blown gently, put into a 15 ml tube, and spun at 1200 rpm for four minutes. The trypsin/medium solution is removed and 5 mls of medium (500 ml DMEM (high glucose)) from BRL catalog #12430-054; 50 mls 10% FBS, […] (50 mg/ml, BRL 10131-035), 5 ml MEM non-essential amino acid (100×BRL #11140-050) and 5 ml pen-strep (BRL #15140-148) is added. The cells and media are mixed carefully
Cells are plated with screening medium (500 ml DMEM (BRL #21063-029), 50 ml FBS (BRL #10082-147) and 5 ml MEM non-essential amino acid (BRL #11140-050) at 6000-7500 cells/100 μl/well of 96 well plate (6-7.5×10^5 cells/10 ml/plate). Plates are placed into 37° C. 5% CO2 incubator overnight.
The following morning, drugs (test compounds or interferon alpha) are diluted in 96 well U bottom plates with media or DMSO/media, depending on the final concentration chosen for screening. Generally for 6 concentrations of each test compounds ranging from 10 micromolar to 0.03 micromolar are applied. 100 μl of the test compound dilution is placed in wells of the 96 well plate containing the HCV replicon cells. Media without drug is added to some wells as a negative controls. DMSO is known to affect cell growth. […]

Compound	EC50
O=C(NC(=S)Nc1cccc(OCc2ccccc2)c1)C1Cc2ccccc2O1 (stereo not shown) [Compound 39, 1-(3-Benzyloxy-phenyl)-3-(2,3-dihydro-benzofuran-2-carbonyl)-thiourea]	< 30 µM
O=C(NC(=S)Nc1cccc(OCc2ccccc2)c1)C1COc2ccccc2O1 (stereo not shown) [Compound 40, 1-(3-Benzyloxy-phenyl)-3-(2,3-dihydro-benzo[1,4]dioxine-2-carbonyl)-thiourea]	< 30 µM
O=C(NC(=S)Nc1cccc(OCc2ccccc2)c1)C1CCc2ccccc2O1 (stereo not shown) [Compound 41, 1-(3-Benzyloxy-phenyl)-3-(chroman-2-carbonyl)-thiourea]	< 30 µM
O=C(NC(=S)Nc1cccc(OCc2ccccc2)c1)c1ccc2ccccc2n1 [Compound 42, 1-(3-Benzyloxy-phenyl)-3-(quinoline-2-carbonyl)-thiourea]	< 30 µM
